Reference: PubChem BioAssay AID2060610 (Molecular Pharmacology Branch, DTP, NCI, 2025)
One block for each compound: values may come before it.

Test system: 616215-338-R-J1-PDC complex spheroids, viability % test/control
Assay: Anticancer human tumor 616215-338-R-J1-PDC patient-derived colon adenocarcinoma cell line growth inhibition [CLK]
Conditions: for IC50: curve of first compound; for viability, T/C: stronger effect = lower value
Source text: A high-throughput screen of multi-cell type tumor spheroids was designed to identify active combinations of […] and targeted small molecules. Complex spheroids include a stromal component modeled by human endothelial cells (HUVEC) and fibroblasts modeled by human mesenchymal stem cells (MSCs). The concentration ranges selected for each drug and investigational agent were based upon clinically achievable concentrations if the clinical Cmax of the agent was known.
Compounds. The drugs and investigational agents: cirtuvivint (SM08502; NSC835563), CC-671 (NSC850746), vemurafenib (NSC761431), tapotoclax (NSC804041), sotorasib (NSC818433), adagrasib (NSC831453), MRTX-1133 (NSC836407), BAY2416964 (NSC825713), copanlisib (NSC816437), inavolisib (NSC800729), abemaciclib (NSC768073), osimertinib (NSC779217), entinostat (NSC756642), eltanexor (KPT-8602, NSC794443), venetoclax (NSC766270), ceralasertib (NSC777638), bortezomib (NSC756655), olaparib (NSC753686), talazoparib (NSC767125), alisertib (NSC759677), peposertib (NSC802822), gemcitabine (NSC613327), 5-fluorouracil (NSC19893), SN-38 (NSC673596), oxaliplatin (NSC266046), paclitaxel (NSC125973), and doxorubicin (NSC123127), were obtained from the National Cancer Institute (NCI) Developmental Therapeutics Program Chemical Repository. The FDA-approved anticancer drug set is available from the Developmental Therapeutics Program at https://dtp.cancer.gov/organization/dscb/obtaining/available plates.htm. […] The stock solutions were prepared in dimethyl sulfoxide (DMSO, Sigma-Aldrich, St. Louis, MO, cat. D2650), except for the platinum complexes which were prepared in saline (Quality Biological, Gaithersburg, MD, cat. 114-055-101), at 800-fold the tested concentration and stored at -70 degrees C prior to their use. All drugs and investigational agents were tested over a range starting from a high concentration at or near the clinical Cmax and decreasing in half-log increments. If the clinical Cmax for an agent had not been determined, the highest concentration tested was 10 microM.
Cell Culture. All cells were maintained in an incubator at 37 degrees C and 5% CO2 with 95% humidity. The PDC lines were cultured according to standard operating procedures established by the NCI PDMR. Briefly, all PDCs were thawed and cultured in Matrigel-coated flasks prepared with a working solution of 1X Ham's F-12 nutrient mix, without supplementation (Invitrogen, Waltham, MA, cat. 11765054), 100 U/mL penicillin-streptomycin (Invitrogen, cat. 15140122), and 2.5% Matrigel (Corning Inc., Corning, NY, cat. 354248) for the first three passages. The 947758-054-R-J2-PDC line was cultured in 6B/Colon 1A media, which includes advanced DMEM/F-12 (Thermo Fisher Scientific, cat. 12634028), 10 mM HEPES (Thermo Fisher Scientific, cat. 15630080), 1X GlutaMAX supplement (Thermo Fisher Scientific, cat. 35050061), 0.1 mg/mL primocin (InvivoGen, cat. ant-pm-2), 10% defined fetal bovine serum, heat inactivated (HyClone Laboratories Inc., cat. SH30070.03HI), 1.25 mM N-Acetyl-L-cysteine (Sigma-Aldrich, cat. A9165), 10 mM nicotinamide (Sigma-Aldrich, cat. N0636), 1X B-27 supplement (Thermo Fisher Scientific, cat. 17504044), 1X N-2 supplement (Thermo Fisher Scientific, cat. 17502048), and 10 microM Y-27632 dihydrochloride (Tocris Bioscience, cat. 1254). The 876862-298-R-J1-PDC was cultured in 6E media, which includes all 6B/Colon 1A media components plus 50% L-WRN conditioned media (ATCC, cat. CRL-3276), 50 ng/mL recombinant human EGF recombinant protein (hEGF; Thermo Fisher Scientific, cat. PHG0311), 10 ng/mL recombinant human fibroblast growth factor 10 (hGFG-10; PeproTech, cat. 100-26), 1 ng/mL recombinant human fibroblast growth factor 2 (hFGF-2; PeproTech, cat. 100-18B), and 1 µM prostaglandin E2 (PGE2; Tocris, cat. 2296). The 227483-062-R1-J1-PDC line was cultured in Panc media, containing all 6E components except hFGF-2, with the addition of 500 nM SB-431542 (Selleckchem, cat. S1067) and 10 nM gastrin (Tocris, cat. 3006). […]

[1] = second compound 0.0316 µM, first compound 0.0316 µM
[2] = second compound 0.0316 µM, first compound 0.1 µM
[3] = second compound 0.0316 µM, first compound 0.316 µM
[4] = second compound 0.0316 µM, first compound 1 µM
[5] = second compound 0.0316 µM, first compound 3.16 µM
[6] = second compound 0.0316 µM, first compound 10 µM
[7] = second compound 0.1 µM, first compound 0.0316 µM
[8] = second compound 0.1 µM, first compound 0.1 µM
[9] = second compound 0.1 µM, first compound 0.316 µM
[10] = second compound 0.1 µM, first compound 1 µM
[11] = second compound 0.1 µM, first compound 3.16 µM
[12] = second compound 0.1 µM, first compound 10 µM
[13] = second compound 0.316 µM, first compound 0.0316 µM
[14] = second compound 0.316 µM, first compound 0.1 µM
[15] = second compound 0.316 µM, first compound 0.316 µM
[16] = second compound 0.316 µM, first compound 1 µM
[17] = second compound 0.316 µM, first compound 3.16 µM
[18] = second compound 0.316 µM, first compound 10 µM
[19] = second compound 1 µM, first compound 0.0316 µM
[20] = second compound 1 µM, first compound 0.1 µM
[21] = second compound 1 µM, first compound 0.316 µM
[22] = second compound 1 µM, first compound 1 µM
[23] = second compound 1 µM, first compound 3.16 µM
[24] = second compound 1 µM, first compound 10 µM
[25] = second compound 3.16 µM, first compound 0.0316 µM
[26] = second compound 3.16 µM, first compound 0.1 µM
[27] = second compound 3.16 µM, first compound 0.316 µM
[28] = second compound 3.16 µM, first compound 1 µM
[29] = second compound 3.16 µM, first compound 3.16 µM
[30] = second compound 3.16 µM, first compound 10 µM
[31] = second compound 10 µM, first compound 0.0316 µM
[32] = second compound 10 µM, first compound 0.1 µM
[33] = second compound 10 µM, first compound 0.316 µM
[34] = second compound 10 µM, first compound 1 µM
[35] = second compound 10 µM, first compound 3.16 µM
[36] = second compound 10 µM, first compound 10 µM
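Also: spheroids exposed to agents for 7 days.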
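For viability, T/C in this document: 100% = DMSO vehicle wells.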

Structure (SMILES): C#Cc1c(F)ccc2cc(O)cc(-c3ncc4c(N5CC6CCC(C5)N6)nc(OCC56CCCN5CC(F)C6)nc4c3F)c12 (centres undefined) + CN1CCN(c2cc(C(=O)Nc3cc4cc(-c5cnn(C)c5)ccc4cn3)ccn2)CC1
IC50 (second compound 0.0316 µM): > 10000 nM
IC50 (second compound 0.1 µM): > 10000 nM
IC50 (second compound 0.316 µM): < 31.6 nM
IC50 (second compound 1 µM): < 31.6 nM
IC50 (second compound 3.16 µM): < 31.6 nM
IC50 (second compound 10 µM): < 31.6 nM
viability, T/C [1]: 93.7%
viability, T/C [2]: 91.2%
viability, T/C [3]: 109%
viability, T/C [4]: 102%
viability, T/C [5]: 106%
viability, T/C [6]: 99.1%
viability, T/C [7]: 101%
viability, T/C [8]: 103%
viability, T/C [9]: 94.7%
viability, T/C [10]: 101%
viability, T/C [11]: 102%
viability, T/C [12]: 74.7%
viability, T/C [13]: 36.2%
viability, T/C [14]: 38.8%
viability, T/C [15]: 30%
viability, T/C [16]: 33.3%
viability, T/C [17]: 24.7%
viability, T/C [18]: 18.8%
viability, T/C [19]: 0.17%
viability, T/C [20]: 0.82%
viability, T/C [21]: 0.2%
viability, T/C [22]: 0.18%
viability, T/C [23]: 0.17%
viability, T/C [24]: 0.71%
viability, T/C [25]: 0.13%
viability, T/C [26]: 2.81%
viability, T/C [27]: 0.12%
viability, T/C [28]: 0.12%
viability, T/C [29]: 0.13%
viability, T/C [30]: 3.3%
viability, T/C [31]: 0.18%
viability, T/C [32]: 1.06%
viability, T/C [33]: 0.16%
viability, T/C [34]: 0.18%
viability, T/C [35]: 0.18%
viability, T/C [36]: 2.17%

IC50 (second compound 0.0316 µM): > 10000 nM
IC50 (second compound 0.1 µM): > 10000 nM
IC50 (second compound 0.316 µM): < 31.6 nM
IC50 (second compound 1 µM): > 10000 nM
IC50 (second compound 3.16 µM): < 31.6 nM
IC50 (second compound 10 µM): < 31.6 nM
Structure (SMILES): C=CC(=O)N1CCN(c2nc(=O)n(-c3c(C)ccnc3C(C)C)c3nc(-c4c(O)cccc4F)c(F)cc23)C(C)C1 (centres undefined) + CNC(=O)c1ccc(Nc2nc(OC3CCCC3)c3c(-c4ccc5nc(C)oc5c4)c[nH]c3n2)c(OC)c1
viability, T/C [1]: 89.8%
viability, T/C [2]: 94.6%
viability, T/C [3]: 92.8%
viability, T/C [4]: 93.2%
viability, T/C [5]: 94.6%
viability, T/C [6]: 95.1%
viability, T/C [7]: 53.8%
viability, T/C [8]: 67.8%
viability, T/C [9]: 60.8%
viability, T/C [10]: 64%
viability, T/C [11]: 55.1%
viability, T/C [12]: 56.4%
viability, T/C [13]: 49.7%
viability, T/C [14]: 44.8%
viability, T/C [15]: 46.9%
viability, T/C [16]: 49.8%
viability, T/C [17]: 53.1%
viability, T/C [18]: 49.2%
viability, T/C [19]: 58.5%
viability, T/C [20]: 49.1%
viability, T/C [21]: 50.4%
viability, T/C [22]: 48.9%
viability, T/C [23]: 54.6%
viability, T/C [24]: 54.6%
viability, T/C [25]: 43.2%
viability, T/C [26]: 45.2%
viability, T/C [27]: 40.1%
viability, T/C [28]: 49.1%
viability, T/C [29]: 59.3%
viability, T/C [30]: 52.6%
viability, T/C [31]: 43.5%
viability, T/C [32]: 41.3%
viability, T/C [33]: 46.3%
viability, T/C [34]: 56.6%
viability, T/C [35]: 53.6%
viability, T/C [36]: 54.8%
